Reference: the NIST ThermoML archive (doi:10.1021/je100231g)
“And” between values parts separate entries of the source, which are not always exact repeats. Identical values can stand only once. Counter-ions that a name gives are not always drawn.

Settings: Liquid, Gas Saturation Method

CCCCOC(=O)CCC(=O)OCCCC [butanedioic acid, dibutyl ester]
Settings	vapor or sublimation pressure [kPa]
313.3 K	0.00132
316.2 K	0.0017
318.3 K	0.00205
320.2 K	0.00248
323.2 K	0.00325
325.2 K	0.00383
328.2 K	0.00489
330.2 K	0.00577
333.2 K	0.00743
335.4 K	0.00877
338.2 K	0.011
340.1 K	0.0121
343.2 K	0.0164
346.2 K	0.0197
349.2 K	0.0247
352.1 K	0.0319
355.1 K	0.0387
358.2 K	0.0473

CCCOC(=O)CCC(=O)OCCC [butanedioic acid, dipropyl ester]
Settings	vapor or sublimation pressure [kPa]
308.3 K	0.00487
312.4 K	0.00685
316.4 K	0.00936
318.5 K	0.0111
321.5 K	0.0139
323.5 K	0.0163
326.4 K	0.0209
328.6 K	0.0252
331.3 K	0.0303
333.4 K	0.0362
336.5 K	0.0443
338.5 K	0.0509
341.5 K	0.0625
343.5 K	0.0723

CCCCOC(=O)C(=O)OCCCC [di-n-butyl oxalate]
Settings	vapor or sublimation pressure
291.4 K	0.00087 kPa
293.4 K	0.0011 kPa
295.7 K	0.00143 kPa
298.8 K	0.00182 kPa
300.4 K	0.00209 kPa
302.3 K	0.00249 kPa
302.8 K	0.00276 kPa
303.3 K	0.00283 kPa
305.2 K	0.0034 kPa
305.3 K	0.00334 kPa
308.2 K	0.00446 kPa
308.3 K	0.00433 kPa
308.4 K	0.00448 kPa
311.3 K	0.00565 kPa
312.3 K	0.00624 kPa
313.2 K	0.0066 kPa
314.3 K	0.00737 kPa
315.5 K	0.00855 kPa
317.4 K	0.00937 kPa
317.8 K	0.0105 kPa
318.2 K	0.0105 kPa
319.9 K	0.0124 kPa
320.2 K	0.0115 kPa
322.5 K	0.0149 kPa
323.2 K	0.0159 kPa
323.4 K	0.0151 kPa
325.3 K	0.0176 kPa and 0.018 kPa
326.4 K	0.0193 kPa
327.5 K	0.0215 kPa
328.2 K	0.0223 kPa
328.5 K	0.0226 kPa
330.3 K	0.0254 kPa
331.1 K	0.0289 kPa
331.4 K	0.0292 kPa
333.2 K	0.0339 kPa
333.5 K	0.0346 kPa and 0.0333 kPa
335.2 K	0.0375 kPa
336.3 K	0.0414 kPa
337 K	0.0434 kPa
338.1 K	0.0475 kPa
338.6 K	0.0475 kPa
340.2 K	0.0543 kPa
340.8 K	0.0586 kPa
341.4 K	0.0568 kPa
343.2 K	0.0651 kPa
343.4 K	0.0693 kPa
343.5 K	0.0645 kPa
345.2 K	0.0741 kPa
348.3 K	0.0962 kPa
351.2 K	0.1137 kPa
353.1 K	0.1332 kPa
358.2 K	0.1811 kPa
